# pKi: −log10 of the molar value.
# What was measured:
# [1] = target: T1, Adenosine receptor A1 (Homo sapiens) (UniProt P30542); assay: Displacement of [3H]DPCPX from human adenosine A1 receptor expressed in CHO cell membrane at 1 uM; assay type: cell membranes
# T1 sequence (whole entry): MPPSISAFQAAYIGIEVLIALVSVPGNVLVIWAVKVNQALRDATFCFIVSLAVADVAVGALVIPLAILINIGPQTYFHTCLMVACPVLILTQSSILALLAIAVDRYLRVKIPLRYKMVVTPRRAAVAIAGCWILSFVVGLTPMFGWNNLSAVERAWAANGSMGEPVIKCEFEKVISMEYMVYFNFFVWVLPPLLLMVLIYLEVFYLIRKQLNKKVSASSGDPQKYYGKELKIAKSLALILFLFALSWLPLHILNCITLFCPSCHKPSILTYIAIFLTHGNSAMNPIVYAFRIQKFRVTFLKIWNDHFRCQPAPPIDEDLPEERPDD
# [2] = target: T2, Adenosine receptor A3 (Homo sapiens) (UniProt P0DMS8); assay: Displacement of [3H]AB-MECA from human adenosine A3 receptor expressed in HEK293 cell membrane at 1 uM; assay type: cell membranes
# T2 sequence (whole entry): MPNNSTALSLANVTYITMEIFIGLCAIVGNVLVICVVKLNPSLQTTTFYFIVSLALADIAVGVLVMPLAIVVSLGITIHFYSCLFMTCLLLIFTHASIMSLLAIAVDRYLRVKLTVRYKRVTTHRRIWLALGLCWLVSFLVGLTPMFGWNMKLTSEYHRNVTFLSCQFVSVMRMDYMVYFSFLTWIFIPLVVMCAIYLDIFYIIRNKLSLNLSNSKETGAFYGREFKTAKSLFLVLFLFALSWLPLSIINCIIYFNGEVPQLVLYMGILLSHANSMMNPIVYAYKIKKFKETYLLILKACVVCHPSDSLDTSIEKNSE
# [3] = target: T3, Adenosine receptor A2b (Homo sapiens) (UniProt P29275); assay: Displacement of [3H]MRS1754 from human adenosine A2B receptor expressed in CHO cell membrane at 1 uM; assay type: cell membranes
# T3 sequence (whole entry): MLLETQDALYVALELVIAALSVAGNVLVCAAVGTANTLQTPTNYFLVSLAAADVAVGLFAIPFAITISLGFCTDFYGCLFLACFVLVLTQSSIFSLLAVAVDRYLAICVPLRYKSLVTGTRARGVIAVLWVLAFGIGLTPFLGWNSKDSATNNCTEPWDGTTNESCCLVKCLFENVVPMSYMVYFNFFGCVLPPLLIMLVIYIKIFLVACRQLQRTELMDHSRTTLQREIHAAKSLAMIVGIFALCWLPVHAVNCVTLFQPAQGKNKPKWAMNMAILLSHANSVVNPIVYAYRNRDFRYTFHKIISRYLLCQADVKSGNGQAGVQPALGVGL
# Adenosine receptor A2a [4] = target: T4, Adenosine receptor A2a (Homo sapiens, UniProt P29274); assay: Displacement of [3H]ZM241385 from human adenosine A2A receptor expressed in HEK293 cell membrane at 1 uM; assay type: cell membranes
# Adenosine receptor A1 = target: T5, Adenosine receptor A1 (Homo sapiens, UniProt P30542); assay: biochemical
# T5 sequence (P30542 whole entry): T1 sequence (whole entry)
# Adenosine receptor A2a [5] = target: T4, Adenosine receptor A2a
# Description: Binding affinity to human adenosine A2A receptor
# Adenosine receptor A2b = target: T6, Adenosine receptor A2b (Homo sapiens, UniProt P29275); assay: Displacement of [3H]MRS1754 from human adenosine A2B receptor expressed in CHO cell membrane; assay type: cell membranes
# T6 sequence (P29275 whole entry): T3 sequence (whole entry)
# Adenosine receptor A2a [6] = target: T4, Adenosine receptor A2a; assay: biochemical
# Adenosine receptor A2a [7] = target: T4, Adenosine receptor A2a; assay: Displacement of [3H]ZM241385 from human adenosine A2A receptor expressed in HEK293 cell membrane
# Adenosine receptor A3 = target: T7, Adenosine receptor A3 (Homo sapiens, UniProt P0DMS8); assay: biochemical
# T7 sequence (P0DMS8 whole entry): T2 sequence (whole entry)
# T4 sequence (P29274 whole entry): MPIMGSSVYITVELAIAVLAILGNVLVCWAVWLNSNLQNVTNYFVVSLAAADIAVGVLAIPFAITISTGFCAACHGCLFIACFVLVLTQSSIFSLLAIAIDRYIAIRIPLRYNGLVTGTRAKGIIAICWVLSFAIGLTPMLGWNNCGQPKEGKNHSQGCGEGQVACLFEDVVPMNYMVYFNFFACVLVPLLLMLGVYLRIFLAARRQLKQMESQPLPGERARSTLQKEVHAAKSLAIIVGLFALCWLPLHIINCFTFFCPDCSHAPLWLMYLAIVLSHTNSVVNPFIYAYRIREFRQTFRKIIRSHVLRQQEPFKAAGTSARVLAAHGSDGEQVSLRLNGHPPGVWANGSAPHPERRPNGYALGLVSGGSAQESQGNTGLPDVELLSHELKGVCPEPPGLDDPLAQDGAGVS
Compound,Activity [2] [%],Activity [3] [%],pKi (Adenosine receptor A1),pKi (Adenosine receptor A2a [6]),other results
CN(C)c1ccc(-c2cc(-c3ccco3)nc(N)c2C#N)cc1,17,2,,,Activity [1]: 11%; Activity (Adenosine receptor A2a [4]): 3.8%
Nc1nc(C(=O)NCCc2ccc(O)cc2)cn2nc(-c3ccco3)nc12,,,,,pKi (Adenosine receptor A2a [5]): 9.00
Nc1nc(CN[C@H]2CCCN2Cc2ccnc(Cl)c2)nc2nc(-c3ccco3)nn12,,,,,pKi (Adenosine receptor A2a [5]): 8.40
COc1ccc(-c2cc(-c3ccco3)nc(N)c2C#N)cc1OC,20,31,6.60,7.04,
COc1ccccc1-c1cc2nc(-c3ccco3)nn2c(N)n1,,,,,pKi (Adenosine receptor A2a [5]): 8.37
N#Cc1c(-c2ccc(Cl)c(Cl)c2)cc(-c2ccco2)nc1N,14,12,7.17,6.72,
CC(O)(C#Cc1cn2nc(-c3ccco3)nc2c(N)n1)Cc1ccncc1 (centres undefined),,,,,pKi (Adenosine receptor A2a [5]): 8.96
CC(C)c1ccc2c(c1)-c1nc(N)nc(-c3ccc(Br)o3)c1C2,,,,,pKi (Adenosine receptor A2a [5]): 9.10
N#Cc1c(-c2ccc3c(c2)OCO3)cc(-c2ccco2)nc1N,,24,7.96,7.59,pKi (Adenosine receptor A3): 6.41
OC[C@H]1O[C@@H](n2cnc3c(NC4CCCC4)ncnc32)[C@H](O)[C@@H]1O [N6-CYCLOPENTYLADENOSINE],,,,5.77,
N#Cc1c(-c2cccs2)cc(-c2ccco2)nc1N,51,,7.55,8.85,pKi (Adenosine receptor A2b): 7.12
N#Cc1c(-c2ccco2)cc(-c2cccs2)nc1N,39,,7.54,7.92,pKi (Adenosine receptor A2b): 6.42
CC(C)(C)OC(=O)N1CCN(c2cccc(-c3cc4nc(-c5ccco5)nn4c(N)n3)c2)CC1,,,,,pKi (Adenosine receptor A2a [5]): 9.30
N#Cc1c(-c2ccccc2)cc(-c2ccco2)nc1N,28,,7.55,7.96,pKi (Adenosine receptor A2b): 6.77
Nc1nc(-c2ccco2)c2ncn(C(=O)NCc3ccccc3)c2n1,,,,,pKi (Adenosine receptor A2a [5]): 8.96
Nc1nc2c(cnn2CCc2ccc(S(=O)(=O)N(CCO)CCO)cc2)c2nc(-c3ccco3)nn12,,,,,pKi (Adenosine receptor A2a [5]): 9.92
Nc1nc(N2CCN3C[C@@H](COc4cccc(F)c4)CC[C@H]3C2)nc2nc(-c3ccco3)nn12,,,,,pKi (Adenosine receptor A2a [5]): 9.70
Cc1ccc(-c2cc(-c3ccco3)nc(N)c2C#N)o1,24,,7.00,7.82,pKi (Adenosine receptor A2b): 6.36
N#Cc1c(-c2ccco2)cc(-c2ccccc2)nc1N,29,,8.24,7.72,pKi (Adenosine receptor A2b): 6.66
CC(C)Oc1ccc(-c2cc(-c3ccco3)nc(N)c2C#N)cc1,7,8,,,Activity [1]: 19%; Activity (Adenosine receptor A2a [4]): 6%
N#Cc1c(-c2ccco2)cc(-c2ccco2)nc1N,33,,7.92,9.00,pKi (Adenosine receptor A2b): 7.47

# More lines, main results first:
Activity [2] [%],Activity [3] [%],pKi (Adenosine receptor A1),pKi (Adenosine receptor A2a [6]),Compound,other results
18,18,7.21,,N#Cc1c(-c2ccc(O)cc2)cc(-c2ccccc2)nc1N,Activity (Adenosine receptor A2a [4]): 17%
2,4,,,CN(C)c1ccc(-c2cc(-c3ccccc3)nc(N)c2C#N)cc1,Activity [1]: 12%; Activity (Adenosine receptor A2a [4]): 1%
18,,7.19,6.85,Cc1cccc(-c2cc(-c3ccco3)nc(N)c2C#N)c1,pKi (Adenosine receptor A2b): 6.21
11,44,7.66,7.27,N#Cc1c(-c2cccs2)cc(-c2ccccc2)nc1N,
31,19,7.37,7.49,N#Cc1c(-c2cccs2)cc(-c2cccs2)nc1N,
32,41,7.92,7.06,N#Cc1c(-c2ccccc2)cc(-c2cccs2)nc1N,
53,26,7.85,6.89,N#Cc1c(-c2ccccc2)cc(-c2ccccc2)nc1N,
21,33,,,COc1ccc(-c2cc(-c3ccco3)nc(N)c2C#N)cc1,
13,29,6.57,,N#Cc1c(-c2cccc(OC(F)(F)F)c2)cc(-c2ccco2)nc1N,Activity (Adenosine receptor A2a [7]): 260 nM
4,17,,,N#Cc1c(-c2ccc(-c3ccccc3)cc2)cc(-c2ccco2)nc1N,Activity [1]: 0%; Activity (Adenosine receptor A2a [4]): 0%
33,37,7.82,6.89,Cc1cccc(-c2cc(-c3ccccc3)nc(N)c2C#N)c1,
0,35,,6.19,N#Cc1c(-c2ccccc2)cc(-c2ccc[nH]2)nc1N,Activity [1]: 28%
28,7,7.47,7.24,N#Cc1c(-c2cccc(OC(F)(F)F)c2)cc(-c2ccccc2)nc1N,
48,0,8.15,,N#Cc1c(-c2ccc3c(c2)OCO3)cc(-c2ccccc2)nc1N,Activity (Adenosine receptor A2a [4]): 34%
34,,7.27,7.39,N#Cc1c(-c2ccc(O)cc2)cc(-c2ccco2)nc1N,pKi (Adenosine receptor A2b): 6.43
21,33,7.32,6.85,N#Cc1c(-c2ccc(Cl)cc2)cc(-c2ccco2)nc1N,
32,13,7.18,6.80,COc1ccc(-c2cc(-c3ccccc3)nc(N)c2C#N)cc1OC,
21,15,,,Cc1ccc(-c2cc(-c3ccco3)nc(N)c2C#N)cc1,Activity [1]: 47%; Activity (Adenosine receptor A2a [4]): 45%

# Reference: ChEMBL document CHEMBL1155896, “2-Amino-6-furan-2-yl-4-substituted nicotinonitriles as A2A adenosine receptor antagonists” (J Med Chem, 2008)
